# Data from patent US10953115B2, “Production of sterile active pharmaceutical ingredients” (Icrom S.R.L., priority 2012, dated 2021).
# Columns and labels:
# [1] = stated as reason why sterile filtration is not achievable; cited from earlier work
# [2] = Appearance and related substances (USP Brinzolamide monograph) after gamma-ray sterilisation; assay type: physicochemical
# Procedure: All the analysis were performed according to USP Brinzolamide monograph, sterility and bioburden test were performed according to Eur. Ph. and USP.
# Two related substances (impurities) are described in the USP monograph: Impurity A and Impurity B.
# The material was tested according to USP, details about appearance of the powder, related substances and sterility were given in Table 1.
# The material was tested according to USP, details about appearance of the powder, related substances and sterility were given in Table 2.
# The material was tested according to USP, details about appearance of the powder, related substances and sterility were given in Table 3.
# The material was tested according to USP, details about appearance of the powder, related substances and sterility were given in Table 4.
# The material was tested according to USP, details about appearance of the powder, related substances and sterility were given in Table 5.
# [3] = micronised, LDPE liner in double barrier foil (no vacuum), 25 KGy, RT
# [4] = micronised, packed under vacuum, 25 KGy, RT
# [5] = micronised, under vacuum and helium, 25 KGy, −78° C.
# [6] = micronised, under vacuum and nitrogen, 25 KGy, −78° C.
# [7] = not-micronized, LDPE liner in barrier foil, 10 KGy, RT
# [8] = not-micronized, LDPE liner in barrier foil, 15 KGy, RT
# [9] = not-micronized, LDPE liner in barrier foil, 20 KGy, RT
# [10] = not-micronized, LDPE liner in barrier foil, 25 KGy, RT
structure (smiles),measurement,setting,value
CCN[C@H]1CN(CCCOC)S(=O)(=O)c2sc(S(N)(=O)=O)cc21 [Brinzolamide],Solubility,[1],poor solubility
same,Compliance with USP specifications,"[2]; Example 1: not-micronized, 10, 15, 20 and 25 KGy, RT",complies with the USP specifications apart the appearance of the powder in the 20 and 25 KGy trials
same,Compliance with USP specification,"[2]; Example 2: micronised, no vacuum, 25 KGy, RT",does not complies with USP specification
same,Compliance with USP specification,"[2]; Example 3: micronised, under vacuum, 25 KGy, RT",complies with USP specification
same,Compliance with USP specification,"[2]; Example 4: micronised, under vacuum and nitrogen, 25 KGy, −78° C.",complies with USP specification
same,Compliance with USP specification,"[2]; Example 5: micronised, under vacuum and helium, 25 KGy, −78° C.",complies with USP specification
same,Appearance,[2]; [3],Almost White powder
same,Impurity A,[2]; [3],Not detected
same,Impurity B,[2]; [3],0.29%
same,Impurity C,[2]; [3],<0.05%
same,Impurity D,[2]; [3],0.62%
same,Total Impurities,[2]; [3],1.4%
same,Appearance,[2]; [4],White powder
same,Impurity A,[2]; [4],Not detected
same,Impurity B,[2]; [4],0.09%
same,Impurity C,[2]; [4],<0.05%
same,Impurity D,[2]; [4],0.30%
same,Total Impurities,[2]; [4],0.6%
same,Appearance,[2]; [5],White powder
same,Impurity A,[2]; [5],Not detected
same,Impurity B,[2]; [5],0.06%
same,Impurity C,[2]; [5],<0.05%
same,Impurity D,[2]; [5],0.11%
same,Total Impurities,[2]; [5],0.2%
same,Appearance,[2]; [6],White powder
same,Impurity A,[2]; [6],Not detected
same,Impurity B,[2]; [6],0.08%
same,Impurity C,[2]; [6],<0.05%
same,Impurity D,[2]; [6],0.16%
same,Total Impurities,[2]; [6],0.3%
same,Appearance,[2]; [7],White powder
same,Impurity A,[2]; [7],Not detected
same,Impurity B,[2]; [7],0.06%
same,Impurity C,[2]; [7],<0.05%
same,Impurity D,[2]; [7],0.11%
same,Total Impurities,[2]; [7],0.2%
same,Appearance,[2]; [8],White powder
same,Impurity A,[2]; [8],Not detected
same,Impurity B,[2]; [8],0.07%
same,Impurity C,[2]; [8],<0.05%
same,Impurity D,[2]; [8],0.14%
same,Total Impurities,[2]; [8],0.2%
same,Appearance,[2]; [9],Greenish powder
same,Impurity A,[2]; [9],Not detected
same,Impurity B,[2]; [9],0.10%
same,Impurity C,[2]; [9],<0.05%
same,Impurity D,[2]; [9],0.19%
same,Total Impurities,[2]; [9],0.3%
same,Appearance,[2]; [10],Greenish powder
same,Impurity A,[2]; [10],Not detected
same,Impurity B,[2]; [10],0.10%
same,Impurity C,[2]; [10],<0.05%
same,Impurity D,[2]; [10],0.21%
same,Total Impurities,[2]; [10],0.4%
